From patent US9637483B2, “Heterocyclic compound” (TAKEDA PHARMACEUTICAL COMPANY LIMITED, priority 2013, dated 2017) come the findings set out here.

Type in all cases: biochemical
One assay addresses T1, TYK2 (Homo sapiens, UniProt P29597).
T1 construct: purchased Invitrogen
The assay is described as follows: TYK2 enzyme inhibition test (LANCE method). The settings on record: 1 μM test compound; read-out: TYK2 enzyme inhibitory activity (%, 1 μM). In short, it runs like this: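 Recombinant TYK2 (375 ng/mL working solution) with ULight-JAK1 peptide (300 nM working solution) and ATP (30 μM working solution) in HEPES pH 7.5 buffer with MgCl2, EGTA, DTT, Tween20, BSA, reacted 1 h at RT. EDTA-stopped, Eu-anti-phosphotyrosine TR-FRET read at 665 nm; inhibition relative to enzyme-free wells as 100%.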

The target of another assay is T2, JAK2 (Homo sapiens, UniProt O60674).
T2 construct: purchased Invitrogen
The assay is described as follows: JAK2 enzyme inhibition test (LANCE method). To be noted: 1 μM test compound; read-out: JAK2 enzyme inhibitory activity (%, 1 μM). In short, it runs like this:
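Recombinant JAK2 (6 ng/mL solution) phosphorylated ULight-JAK1 peptide (300 nM solution) with ATP (45 μM solution) in pH 7.5 HEPES/MgCl2/DTT buffer for 1 hr at room temperature. After EDTA stop and europium anti-phosphotyrosine antibody for 1 hr, TR-FRET read at 665 nm; inhibition relative to enzyme-free wells as 100%.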

The next assay has as its target T3, JAK3 (Homo sapiens, UniProt P52333).
T3 construct: purchased Invitrogen
T3 sequence (P52333 1-1124): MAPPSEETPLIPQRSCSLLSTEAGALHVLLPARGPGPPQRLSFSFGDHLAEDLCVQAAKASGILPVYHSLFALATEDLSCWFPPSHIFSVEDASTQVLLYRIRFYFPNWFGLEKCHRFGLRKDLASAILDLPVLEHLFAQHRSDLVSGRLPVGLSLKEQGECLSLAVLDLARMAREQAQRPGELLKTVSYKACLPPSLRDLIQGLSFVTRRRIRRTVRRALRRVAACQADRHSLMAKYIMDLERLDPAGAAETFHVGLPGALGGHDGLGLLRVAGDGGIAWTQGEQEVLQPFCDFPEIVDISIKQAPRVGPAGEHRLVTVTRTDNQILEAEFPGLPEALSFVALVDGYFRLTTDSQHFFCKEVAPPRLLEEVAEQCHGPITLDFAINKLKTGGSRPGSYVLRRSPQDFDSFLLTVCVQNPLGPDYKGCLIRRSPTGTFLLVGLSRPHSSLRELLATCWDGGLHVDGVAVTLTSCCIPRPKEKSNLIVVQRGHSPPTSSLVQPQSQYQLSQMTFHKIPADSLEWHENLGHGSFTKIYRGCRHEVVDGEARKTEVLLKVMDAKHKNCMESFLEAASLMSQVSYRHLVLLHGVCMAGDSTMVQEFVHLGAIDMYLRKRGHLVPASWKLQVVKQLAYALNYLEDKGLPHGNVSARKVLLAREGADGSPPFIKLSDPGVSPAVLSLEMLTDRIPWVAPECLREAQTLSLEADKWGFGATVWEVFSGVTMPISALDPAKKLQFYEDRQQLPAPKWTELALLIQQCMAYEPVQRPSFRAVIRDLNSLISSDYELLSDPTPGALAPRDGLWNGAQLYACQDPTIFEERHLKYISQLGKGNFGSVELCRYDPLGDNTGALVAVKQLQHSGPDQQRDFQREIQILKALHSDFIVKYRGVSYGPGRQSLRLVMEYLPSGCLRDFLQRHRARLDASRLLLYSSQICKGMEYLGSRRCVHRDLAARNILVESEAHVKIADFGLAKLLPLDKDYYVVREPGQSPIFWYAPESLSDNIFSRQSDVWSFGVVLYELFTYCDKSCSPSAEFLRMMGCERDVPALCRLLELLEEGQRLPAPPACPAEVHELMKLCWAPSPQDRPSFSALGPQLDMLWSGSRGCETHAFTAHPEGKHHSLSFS
The assay is described as follows: JAK3 enzyme inhibition test (LANCE method). To be noted: 1 μM test compound; read-out: JAK3 enzyme inhibitory activity (%, 1 μM). The essentials: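 Recombinant JAK3 (12 ng/mL solution) with ULight-JAK1 peptide (300 nM solution) and ATP (15 μM solution) in HEPES pH 7.5 buffer, 1 h at room temperature. EDTA stop with Eu-anti-phosphotyrosine antibody; TR-FRET at 665 nm. Inhibition relative to enzyme-free wells as 100%.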

For a further assay, the target named is T4, JAK1 (Homo sapiens, UniProt P23458).
T4 construct: purchased Invitrogen
The assay is described as follows: JAK1 enzyme inhibition test (LANCE method). The settings on record: 1 μM test compound; for inhibition at 1 µM: read-out: JAK1 enzyme inhibitory activity (%, 1 μM). In short, it runs like this: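 TR-FRET (LANCE) with ULight-JAK1 peptide (300 nM working solution) and ATP (150 μM working solution) in HEPES pH 7.5, MgCl2, EGTA, DTT buffer; 1 h at room temperature. EDTA stop plus Eu-anti-phosphotyrosine antibody, 665 nm read after 1 h. Inhibition relative to enzyme-free wells as 100%.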

T4 sequence (P23458 whole entry): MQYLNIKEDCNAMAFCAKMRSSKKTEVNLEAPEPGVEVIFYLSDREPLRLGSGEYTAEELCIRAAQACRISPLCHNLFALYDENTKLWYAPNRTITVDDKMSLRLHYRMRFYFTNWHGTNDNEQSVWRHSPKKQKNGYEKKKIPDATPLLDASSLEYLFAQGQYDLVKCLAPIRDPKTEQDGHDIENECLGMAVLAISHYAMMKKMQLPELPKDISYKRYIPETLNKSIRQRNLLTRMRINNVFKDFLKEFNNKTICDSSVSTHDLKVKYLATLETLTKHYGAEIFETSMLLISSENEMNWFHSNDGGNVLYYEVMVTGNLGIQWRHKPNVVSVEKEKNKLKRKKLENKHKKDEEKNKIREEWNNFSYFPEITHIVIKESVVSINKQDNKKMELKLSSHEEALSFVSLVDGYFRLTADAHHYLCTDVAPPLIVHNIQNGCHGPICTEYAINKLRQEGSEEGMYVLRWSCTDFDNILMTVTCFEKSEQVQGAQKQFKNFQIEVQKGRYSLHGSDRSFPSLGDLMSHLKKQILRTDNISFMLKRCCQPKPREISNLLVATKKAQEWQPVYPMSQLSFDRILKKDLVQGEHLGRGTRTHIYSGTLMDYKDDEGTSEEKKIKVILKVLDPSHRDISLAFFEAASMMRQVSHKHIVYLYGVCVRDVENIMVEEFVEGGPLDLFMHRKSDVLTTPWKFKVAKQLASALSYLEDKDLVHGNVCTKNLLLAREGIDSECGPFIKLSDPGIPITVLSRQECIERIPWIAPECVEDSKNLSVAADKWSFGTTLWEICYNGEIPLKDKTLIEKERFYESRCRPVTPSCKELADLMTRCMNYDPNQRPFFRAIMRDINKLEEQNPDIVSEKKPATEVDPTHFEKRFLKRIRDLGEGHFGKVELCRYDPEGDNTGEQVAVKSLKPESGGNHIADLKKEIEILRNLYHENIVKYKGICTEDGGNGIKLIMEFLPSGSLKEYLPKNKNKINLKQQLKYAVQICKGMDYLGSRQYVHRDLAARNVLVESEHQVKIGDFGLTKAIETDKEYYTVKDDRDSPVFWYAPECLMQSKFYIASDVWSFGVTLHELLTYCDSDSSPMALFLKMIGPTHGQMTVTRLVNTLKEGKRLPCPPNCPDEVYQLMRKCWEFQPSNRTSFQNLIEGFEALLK
T1 sequence (P29597 whole entry): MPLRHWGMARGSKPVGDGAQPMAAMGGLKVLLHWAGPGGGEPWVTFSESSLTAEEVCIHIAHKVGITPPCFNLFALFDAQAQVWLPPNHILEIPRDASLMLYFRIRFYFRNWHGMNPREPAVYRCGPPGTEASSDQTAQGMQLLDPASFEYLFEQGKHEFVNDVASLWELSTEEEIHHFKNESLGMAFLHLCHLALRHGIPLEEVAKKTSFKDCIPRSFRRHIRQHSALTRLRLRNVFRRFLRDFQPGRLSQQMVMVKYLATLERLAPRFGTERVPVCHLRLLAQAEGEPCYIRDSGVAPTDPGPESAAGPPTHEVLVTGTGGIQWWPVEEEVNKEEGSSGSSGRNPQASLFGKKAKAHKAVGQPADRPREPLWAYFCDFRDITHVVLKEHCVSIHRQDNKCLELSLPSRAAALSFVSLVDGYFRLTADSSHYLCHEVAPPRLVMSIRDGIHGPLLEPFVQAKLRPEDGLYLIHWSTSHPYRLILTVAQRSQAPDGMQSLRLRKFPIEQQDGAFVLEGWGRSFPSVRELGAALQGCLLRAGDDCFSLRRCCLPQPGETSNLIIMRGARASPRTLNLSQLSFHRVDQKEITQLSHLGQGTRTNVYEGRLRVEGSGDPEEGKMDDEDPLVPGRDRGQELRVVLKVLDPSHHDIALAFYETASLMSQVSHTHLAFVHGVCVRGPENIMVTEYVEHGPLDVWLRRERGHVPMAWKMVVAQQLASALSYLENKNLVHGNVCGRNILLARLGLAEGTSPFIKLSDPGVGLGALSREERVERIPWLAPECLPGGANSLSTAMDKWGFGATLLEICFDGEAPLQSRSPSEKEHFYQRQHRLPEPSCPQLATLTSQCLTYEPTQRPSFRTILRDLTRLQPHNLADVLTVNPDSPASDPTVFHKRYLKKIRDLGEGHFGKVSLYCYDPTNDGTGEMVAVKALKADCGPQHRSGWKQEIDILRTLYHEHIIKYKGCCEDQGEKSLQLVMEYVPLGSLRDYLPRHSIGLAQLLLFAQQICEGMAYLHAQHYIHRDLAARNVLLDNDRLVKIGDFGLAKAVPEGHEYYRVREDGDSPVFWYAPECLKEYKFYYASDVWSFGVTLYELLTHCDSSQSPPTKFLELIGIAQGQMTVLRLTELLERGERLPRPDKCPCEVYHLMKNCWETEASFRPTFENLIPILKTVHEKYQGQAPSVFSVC
T2 sequence (O60674 whole entry): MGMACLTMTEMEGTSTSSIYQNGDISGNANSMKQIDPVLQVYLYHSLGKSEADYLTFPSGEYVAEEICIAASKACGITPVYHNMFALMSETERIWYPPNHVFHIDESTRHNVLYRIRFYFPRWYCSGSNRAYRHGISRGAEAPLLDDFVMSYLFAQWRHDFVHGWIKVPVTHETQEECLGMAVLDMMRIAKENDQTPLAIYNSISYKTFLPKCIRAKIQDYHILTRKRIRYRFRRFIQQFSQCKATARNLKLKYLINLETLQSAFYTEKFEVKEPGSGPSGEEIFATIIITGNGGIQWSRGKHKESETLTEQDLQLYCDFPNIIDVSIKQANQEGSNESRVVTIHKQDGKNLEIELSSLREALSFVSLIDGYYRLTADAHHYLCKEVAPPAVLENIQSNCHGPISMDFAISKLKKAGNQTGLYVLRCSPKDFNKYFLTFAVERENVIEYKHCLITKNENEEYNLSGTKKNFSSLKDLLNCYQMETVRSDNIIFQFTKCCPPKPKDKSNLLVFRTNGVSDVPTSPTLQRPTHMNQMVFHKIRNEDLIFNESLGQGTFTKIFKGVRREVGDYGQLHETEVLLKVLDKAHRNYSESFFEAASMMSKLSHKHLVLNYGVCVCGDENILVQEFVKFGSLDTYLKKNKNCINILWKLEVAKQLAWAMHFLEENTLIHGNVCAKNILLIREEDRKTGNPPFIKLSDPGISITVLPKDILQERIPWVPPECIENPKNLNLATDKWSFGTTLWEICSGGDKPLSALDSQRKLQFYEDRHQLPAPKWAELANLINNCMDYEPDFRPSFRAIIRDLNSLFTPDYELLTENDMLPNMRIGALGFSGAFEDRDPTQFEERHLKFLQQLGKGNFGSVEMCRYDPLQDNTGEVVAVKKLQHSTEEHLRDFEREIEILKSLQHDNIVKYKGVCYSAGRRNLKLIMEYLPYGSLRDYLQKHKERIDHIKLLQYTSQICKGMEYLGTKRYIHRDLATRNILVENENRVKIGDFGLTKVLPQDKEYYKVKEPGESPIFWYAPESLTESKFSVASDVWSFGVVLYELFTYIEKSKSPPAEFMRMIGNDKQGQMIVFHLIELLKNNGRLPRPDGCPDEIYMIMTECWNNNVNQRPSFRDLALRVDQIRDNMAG

`CC(C)[C@H](C)n1cc(-c2cc(N3CCCC3CN(C)C)n(C)n2)c2[nH]nc(N)c2c1=O` (stereo partly drawn) [Example 103, 3-amino-7-(5-(2-((dimethylamino)methyl)pyrrolidin-1-yl)-1-methyl-1H-pyrazol-3-yl)-5-((2S)-3-methylbutan-2-yl)-1,5-dihydro-4H-pyrazolo[4,3-c]pyridin-4-one]: the inhibition at 1 µM worked out at 96% on TYK2, 93% at JAK2 and 97% at JAK3. In addition, the “JAK1 enzyme inhibitory activity (%, 1 μM)” value on JAK1 (1 µM) came to 51%.

For `CC(C)[C@H](C)n1cc(-c2cc(N3CC4(COC4)C3)n(C)n2)c2[nH]nc(N)c2c1=O` [Example 105, 3-amino-5-((2S)-3-methylbutan-2-yl)-7-(1-methyl-5-(2-oxa-6-azaspiro[3.3]hept-6-yl)-1H-pyrazol-3-yl)-1,5-dihydro-4H-pyrazolo[4,3-c]pyridin-4-one], the inhibition at 1 µM was 99% at TYK2, 99% at JAK2, 99% on JAK3 and 97% at JAK1.

Regarding `CO[C@]1(c2cc(-c3cn(-c4c(F)cccc4F)c(=O)c4c(N)n[nH]c34)nn2C)C[C@H](C(=O)N(C)C)C1` [Example 124, cis-3-(3-(3-amino-5-(2,6-difluorophenyl)-4-oxo-4,5-dihydro-1H-pyrazolo[4,3-c]pyridin-7-yl)-1-methyl-1H-pyrazol-5-yl)-3-methoxy-N,N-dimethylcyclobutanecarboxamide], the inhibition at 1 µM at TYK2 is 101%; on JAK2, 99%; on JAK3 it was 100%; at JAK1 it was 99%.

Turning to `CC1CN(c2cc(-c3cn([C@@H](C)C(C)C)c(=O)c4c(N)n[nH]c34)nn2C)CCO1` (stereo partly drawn) [Example 31, 3-amino-5-((2S)-3-methylbutan-2-yl)-7-(1-methyl-5-(2-methylmorpholin-4-yl)-1H-pyrazol-3-yl)-1,5-dihydro-4H-pyrazolo[4,3-c]pyridin-4-one], the inhibition at 1 µM is 99% on TYK2, 98% on JAK2, 99% on JAK3 and 97% on JAK1.

Turning to `CNC(=O)c1ccc(-c2cc(-c3cn([C@@H](C)C(C)C)c(=O)c4c(N)n[nH]c34)nn2C)cc1` [Example 40, 4-(3-(3-amino-5-((2S)-3-methylbutan-2-yl)-4-oxo-4,5-dihydro-1H-pyrazolo[4,3-c]pyridin-7-yl)-1-methyl-1H-pyrazol-5-yl)-N-methylbenzamide], the inhibition at 1 µM at TYK2 was found to be 100%; at JAK2, 98%; at JAK3, 99%; at JAK1, 99%.

As for `Cn1nc(-c2cn(C(C3CC3)C3CC3)c(=O)c3c(N)n[nH]c23)cc1N1CC[C@@H](O)C1` [Example 169, 3-amino-5-(dicyclopropylmethyl)-7-(5-((3R)-3-hydroxypyrrolidin-1-yl)-1-methyl-1H-pyrazol-3-yl)-1,5-dihydro-4H-pyrazolo[4,3-c]pyridin-4-one], the inhibition at 1 µM on TYK2 was found to be 98%; at JAK2, 98%; on JAK3, 99%; at JAK1, 98%.
